Assay results reported in ChEMBL document CHEMBL1142826, “Structure based approach to the design of bicyclic-1H-isoindole-1,3(2H)-dione based androgen receptor antagonists” (Bioorg Med Chem Lett, 2005).

Experiments:
Androgen receptor [1] = molecular target: T1, Androgen receptor (Homo sapiens, UniProt P10275, T878A); assay: Inhibition of mutant T877A Androgen receptor in human LNCaP cells; Ag means agonist; assay type: functional, cell-based
Androgen receptor [2] = molecular target: T2, Androgen receptor (Homo sapiens, UniProt P10275); assay: Inhibition of androgen dependent human prostate cancer cell […] proliferation; Ag means agonist; assay type: functional, cell-based; conditions: cancer cell lines
T2 sequence (P10275 whole entry): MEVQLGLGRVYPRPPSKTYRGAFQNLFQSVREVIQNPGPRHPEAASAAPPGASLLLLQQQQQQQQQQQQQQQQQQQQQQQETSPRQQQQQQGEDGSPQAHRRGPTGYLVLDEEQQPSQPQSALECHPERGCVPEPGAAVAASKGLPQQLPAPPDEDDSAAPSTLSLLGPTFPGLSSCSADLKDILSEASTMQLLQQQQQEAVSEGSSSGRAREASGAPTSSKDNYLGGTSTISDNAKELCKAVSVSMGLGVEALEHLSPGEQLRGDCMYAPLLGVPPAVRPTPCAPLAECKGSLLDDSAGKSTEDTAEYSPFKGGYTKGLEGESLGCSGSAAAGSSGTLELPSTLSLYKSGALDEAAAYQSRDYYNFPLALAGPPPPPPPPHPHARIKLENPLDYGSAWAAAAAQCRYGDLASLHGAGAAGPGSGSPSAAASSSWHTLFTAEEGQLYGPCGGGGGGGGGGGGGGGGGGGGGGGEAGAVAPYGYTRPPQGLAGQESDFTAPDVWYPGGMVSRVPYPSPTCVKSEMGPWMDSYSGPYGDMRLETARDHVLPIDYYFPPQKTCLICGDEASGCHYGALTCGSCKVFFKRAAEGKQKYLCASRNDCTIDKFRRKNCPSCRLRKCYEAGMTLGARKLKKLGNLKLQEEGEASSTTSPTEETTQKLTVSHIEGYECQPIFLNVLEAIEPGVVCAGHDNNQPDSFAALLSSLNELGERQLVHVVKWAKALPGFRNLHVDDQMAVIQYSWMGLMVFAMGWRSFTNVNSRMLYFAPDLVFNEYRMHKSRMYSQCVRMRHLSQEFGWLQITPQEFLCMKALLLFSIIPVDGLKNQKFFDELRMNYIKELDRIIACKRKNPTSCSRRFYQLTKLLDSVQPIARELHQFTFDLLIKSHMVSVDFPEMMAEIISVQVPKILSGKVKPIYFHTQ

Androgen receptor [3] = molecular target: T2, Androgen receptor
Description: Inhibition of androgen receptor in human MDA-453 cells

Androgen receptor [4] = molecular target: T1, Androgen receptor; assay: biochemical
Androgen receptor [5] = molecular target: T1, Androgen receptor; assay: Inhibition of mutant T877A Androgen receptor in human LNCaP cells; assay type: cell-based
Androgen receptor [6] = molecular target: T2, Androgen receptor; assay: Binding affinity for androgen receptor in human MDA-453 cells

T1 sequence (P10275 whole entry T878A): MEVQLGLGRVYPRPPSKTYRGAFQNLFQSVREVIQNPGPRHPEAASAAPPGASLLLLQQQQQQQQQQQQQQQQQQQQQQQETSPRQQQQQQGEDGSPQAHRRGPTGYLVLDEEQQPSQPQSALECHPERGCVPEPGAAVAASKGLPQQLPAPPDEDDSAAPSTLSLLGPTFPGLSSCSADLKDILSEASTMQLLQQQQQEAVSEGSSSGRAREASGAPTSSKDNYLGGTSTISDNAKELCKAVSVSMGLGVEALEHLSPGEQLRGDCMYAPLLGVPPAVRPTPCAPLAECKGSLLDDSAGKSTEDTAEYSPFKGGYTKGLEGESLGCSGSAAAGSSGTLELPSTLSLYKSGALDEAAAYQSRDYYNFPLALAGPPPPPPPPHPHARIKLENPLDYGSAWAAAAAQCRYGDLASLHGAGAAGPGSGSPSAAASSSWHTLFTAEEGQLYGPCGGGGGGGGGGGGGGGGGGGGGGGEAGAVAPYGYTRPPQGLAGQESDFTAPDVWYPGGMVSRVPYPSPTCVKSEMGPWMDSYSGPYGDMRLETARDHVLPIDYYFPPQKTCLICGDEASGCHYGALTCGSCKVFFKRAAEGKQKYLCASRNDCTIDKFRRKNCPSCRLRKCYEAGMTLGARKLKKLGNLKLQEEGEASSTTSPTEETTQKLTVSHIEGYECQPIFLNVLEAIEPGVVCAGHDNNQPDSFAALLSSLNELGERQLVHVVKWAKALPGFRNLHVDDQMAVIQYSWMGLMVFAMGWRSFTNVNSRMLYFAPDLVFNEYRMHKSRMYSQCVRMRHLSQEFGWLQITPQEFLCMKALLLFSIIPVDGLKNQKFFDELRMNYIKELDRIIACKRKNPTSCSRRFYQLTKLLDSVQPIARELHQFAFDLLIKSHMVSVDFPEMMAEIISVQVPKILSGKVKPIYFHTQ

In the case of `O=C1[C@@H]2C3CCC(C3)[C@@H]2C(=O)N1c1ccc([N+](=O)[O-])c(C(F)(F)F)c1`, the IC50 (Androgen receptor [1]) is reported as “Agonist” and the IC50 (Androgen receptor [2]) is reported as “Agonist”.

For `Cc1cc(N2C(=O)[C@@H]3C4C=CC(CC4)[C@@H]3C2=O)ccc1Br`, the IC50 (Androgen receptor [1]) was “Agonist”, the IC50 (Androgen receptor [2]) was “Agonist” and the IC50 (Androgen receptor [3]) was 68 nM. The Ki (Androgen receptor [4]) was 0.01 nM.

With `O=C1[C@@H]2C3C=CC(CC3)[C@@H]2C(=O)N1c1cccc(C(F)(F)F)c1` the IC50 (Androgen receptor [5]) was 66 nM, the IC50 (Androgen receptor [3]) was 196 nM and the Ki (Androgen receptor [4]) was 19 nM.

For `O=C1[C@@H]2C3C=CC(C3)[C@@H]2C(=O)N1c1ccc(Cl)c(Cl)c1`, the Ki (Androgen receptor [6]) was 158 nM, the IC50 (Androgen receptor [5]) was 41 nM and the IC50 (Androgen receptor [3]) was 307 nM. It also gave a Ki (Androgen receptor [4]) of 6 nM.

With `O=C1[C@@H]2C3C=CC([C@H]4C[C@@H]34)[C@@H]2C(=O)N1c1cccc(C(F)(F)F)c1` the IC50 (Androgen receptor [5]) was 30 nM, the IC50 (Androgen receptor [3]) was 1700 nM and the Ki (Androgen receptor [4]) was 9 nM.

In the case of `CN1C(=O)C2C=CC1[C@@H]1C(=O)N(c3ccc([N+](=O)[O-])c4ccccc34)C(=O)[C@H]21` (stereo not given in full), the Ki (Androgen receptor [6]) is reported as greater than 5000 nM, the IC50 (Androgen receptor [5]) is reported as 631 nM and the IC50 (Androgen receptor [3]) is reported as 4030 nM. The Ki (Androgen receptor [4]) was 115 nM.

`O=C1[C@@H]2C3CCCC(CC3)[C@@H]2C(=O)N1c1cccc(C(F)(F)F)c1` gave an IC50 (Androgen receptor [5]) of 23 nM, an IC50 (Androgen receptor [3]) of 658 nM and a Ki (Androgen receptor [4]) of 20 nM.

In the case of `O=C1[C@@H]2C3C=CC(CC3)[C@@H]2C(=O)N1c1ccc(Cl)c(Cl)c1`, the IC50 (Androgen receptor [1]) is reported as “Agonist”, the IC50 (Androgen receptor [2]) is reported as “Agonist” and the Ki (Androgen receptor [6]) is reported as 83 nM. For the same compound, the IC50 (Androgen receptor [3]) was 150 nM and the Ki (Androgen receptor [4]) was 28 nM.

For `O=C1[C@@H]2C3C=CC(CC3)[C@@H]2C(=O)N1c1ccc([N+](=O)[O-])c2ccccc12`, the IC50 (Androgen receptor [2]) was “Agonist”, the IC50 (Androgen receptor [3]) was 224 nM and the Ki (Androgen receptor [4]) was 0.5 nM.

In the case of `O=C1[C@@H]2C3C=CC([C@H]4C[C@@H]34)[C@@H]2C(=O)N1c1ccc([N+](=O)[O-])c2ccccc12`, the IC50 (Androgen receptor [1]) is reported as “Agonist”, the IC50 (Androgen receptor [2]) is reported as “Agonist” and the Ki (Androgen receptor [6]) is reported as 3 nM. The IC50 (Androgen receptor [3]) was 786 nM.

With `O=C1[C@@H]2C3C=CC(CCC3)[C@@H]2C(=O)N1c1ccc([N+](=O)[O-])c2ccccc12` the IC50 (Androgen receptor [1]) was “Agonist”, the IC50 (Androgen receptor [2]) was “Agonist” and the IC50 (Androgen receptor [3]) was 49 nM.

For `Cc1cc(N2C(=O)[C@@H]3C4C=CC([C@H](O)[C@@H]4O)[C@@H]3C2=O)ccc1Br`, the IC50 (Androgen receptor [2]) was “Agonist”, the Ki (Androgen receptor [6]) was 432 nM and the IC50 (Androgen receptor [5]) was 59 nM. The IC50 (Androgen receptor [3]) was 5240 nM and the Ki (Androgen receptor [4]) was 33 nM.

`CC(C)(O)C(=O)Nc1ccc([N+](=O)[O-])c(C(F)(F)F)c1` [HYDROXYFLUTAMIDE] was tested, and the IC50 (Androgen receptor [1]) was “Agonist” and the IC50 (Androgen receptor [2]) was “Agonist”.
